Data: patent publication US20210032253A1, “PYRAZOLO[1,5-A][1,3,5]TRIAZINE-2-AMINE DERIVATIVE, PREPARATION METHOD THEREFOR AND MEDICAL USE THEREOF” (JIANGSU HENGRUI MEDICINE CO., LTD., priority 2018, published 2021)

Columns and labels:
[1] = biological target: T1, adenosine A1 receptor (A1R) (Homo sapiens, UniProt P30542); assay: Inhibition of adenosine A1 receptor cAMP signaling pathway in CHO-K1/A1R cells (HTRF cAMP dynamic 2 kit); format: cell-based; conditions: Table 2; for IC50: CHO-K1/A1R cells, cAMP, 10 μM forskolin, 10 nM CPA; for IC50 ratio (A1R/A2aR): selectivity A1R over A2aR
T1 construct: expressed in transfected cells; host or cells: CHO-K1
T1 sequence (P30542 1-326): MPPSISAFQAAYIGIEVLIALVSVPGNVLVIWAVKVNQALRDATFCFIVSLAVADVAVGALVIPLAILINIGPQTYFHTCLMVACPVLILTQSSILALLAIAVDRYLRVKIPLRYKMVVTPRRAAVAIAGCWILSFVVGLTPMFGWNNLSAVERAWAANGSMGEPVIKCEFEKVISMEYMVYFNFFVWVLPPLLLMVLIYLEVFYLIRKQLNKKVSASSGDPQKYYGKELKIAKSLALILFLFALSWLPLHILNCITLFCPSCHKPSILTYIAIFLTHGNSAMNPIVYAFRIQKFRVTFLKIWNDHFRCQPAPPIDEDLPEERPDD
Procedure, shortened: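 CHO-K1 cells stably expressing A1R, in HBSS with 20 mM HEPES, 0.1% BSA, rolipram and adenosine deaminase, were pre-incubated 30 min at RT with compound (0.1–100000 nM final). Cells were then stimulated 30 min with 10 μM forskolin plus 10 nM CPA. Intracellular cAMP was read by HTRF after 1 h detection.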

[2] = biological target: T2, adenosine A3 receptor (A3R) (Homo sapiens, UniProt P0DMS8); assay: Inhibition of adenosine A3 receptor cAMP signaling pathway in CHO-K1/A3R cells (HTRF cAMP dynamic 2 kit); format: cell-based; conditions: Table 3; for IC50: CHO-K1/A3R cells, cAMP, 10 μM forskolin, 5 nM 2Cl-IB-MECA; for IC50 ratio (A3R/A2aR): selectivity A3R over A2aR
T2 construct: expressed in transfected cells; host or cells: CHO-K1
T2 sequence (P0DMS8 1-318): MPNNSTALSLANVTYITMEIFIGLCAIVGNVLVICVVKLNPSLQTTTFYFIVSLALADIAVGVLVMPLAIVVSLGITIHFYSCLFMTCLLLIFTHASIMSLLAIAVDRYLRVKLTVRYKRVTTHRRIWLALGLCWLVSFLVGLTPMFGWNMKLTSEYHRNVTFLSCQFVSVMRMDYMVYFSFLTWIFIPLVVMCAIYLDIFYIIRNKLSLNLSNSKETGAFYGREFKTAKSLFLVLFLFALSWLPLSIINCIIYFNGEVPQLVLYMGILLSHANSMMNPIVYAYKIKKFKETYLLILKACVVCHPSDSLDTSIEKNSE
Procedure, shortened: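 CHO-K1 cells expressing A3R, in HBSS/HEPES/BSA with rolipram and adenosine deaminase, were preincubated 30 min with compound (0.1–100000 nM final). They were then stimulated 30 min with 10 μM forskolin plus 5 nM 2Cl-IB-MECA at room temperature. cAMP read by HTRF and IC50 calculated.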

IC50 [1] | IC50 ratio (A1R/A2aR) [1] | IC50 [2] | IC50 ratio (A3R/A2aR) [2] | Structure (SMILES)
1120 nM | >10^3 | 2060 nM | >10^3 | Cc1ccc(-c2nc(N)nc3c(Cc4cccc(CO[C@H]5CCOC5)n4)cnn23)o1 [Example 1, (S)-4-(5-Methylfuran-2-yl)-8-((6-(((tetrahydrofuran-3-yl)oxy)methyl)pyridin-2-yl)methyl)pyrazolo[1,5-a][1,3,5]triazin-2-amine]
2540 nM | >10^3 | 2200 nM | >10^3 | Cc1ccc(-c2nc(N)nc3c(Nc4cccc(CO[C@H]5CCOC5)n4)cnn23)o1 [Example 18, (S)-4-(5-Methylfuran-2-yl)-N^8-(6-(((tetrahydrofuran-3-yl)oxy)methyl)pyridin-2-yl)pyrazolo[1,5-a][1,3,5]triazine-2,8-diamine]
2860 nM | >10^3 | 4790 nM | >10^3 | Cc1ccc(-c2nc(N)nc3c(Oc4cccc(CO[C@H]5CCOC5)n4)cnn23)o1 [Example 19, (S)-4-(5-Methylfuran-2-yl)-8-((6-(((tetrahydrofuran-3-yl)oxy)methyl)pyridin-2-yl)oxy)pyrazolo[1,5-a][1,3,5]triazin-2-amine]
